The test system of one test is rat gastric emptying. The test is described as follows: Rat gastric emptying assay (methyl cellulose/phenol red test meal). The class given is in vivo. To be noted: vehicle 66. On the procedure:
7. RAT GASTRIC EMPTYING PROTOCOL
Methyl Cellulose (MC) Test Meal
1. Disperse MC in water at 80° C. at a final concentration of 1.5% under continuous stirring. Cool to room temperature.
2. Add Phenol Red (50 mg/100) to solution.
3. Keep solution stirring during entire experiment.
1. Food deprive animals for 18 hours.
2. Inject test drug/prop. glycol or prop. glycol alone intraperitoneally.
3. After 5 minutes, gavage 1.5 mL of Pheno Red/MC solution
1. After 20 minutes, decapitate animal
2. Clamp stomach at the pylorus and cardia ends, and rinse in 0.9% NaCl.
3. Place stomach in 100 mL of 0.1N NaOH, cut into small pieces, and homogenize for 30 seconds.
4. Let settle at room temperature for 60 minutes.
5. In centrifuge tube, add 5 mL of supernatant and 0.5 mL of trichloroacetic acid (29% w/v), and centrifuge at 2,800 rpm for 20 minutes.
6. Decant supernatant, and add 4 mL of 0.5N NaOH and read absorbance at a wavelength of 560 nm.
The standard stomach is determined from the phenol red recovered in stomachs of rats decapitated immediately after intragastric infusion of MC/phenol red.

Test [1] deals with isolated guinea pig gallbladder. Description: Isolated guinea pig gallbladder assay (contraction, % CCK-induced maximal response). The settings on record: Table 2; for % contraction: Cavia porcellus. The protocol: 3. GUINEA PIG GALL BLADDER ASSAY
Gallbladders are removed from guinea pigs sacrificed by cervical dislocation. The isolated gallbladders are cleaned of adherent connective tissue and cut into two rings from each animal (2-6 mm in length). […] Tissues are connected via gold chains and stainless steel mounting wires to isometric force displacement transducers (Grass, Model FT03 D). Responses are then recorded on a polygraph (Grass, Model 7E).
Rings are gradually stretched (over a 120 min. period) to a basal resting tension of 1 gm which is maintained throughout the experiment. During the basal tension adjustment period, the rings are exposed to acetylcholine (10^-6 M) four times to verify tissue contractility. The tissues are then exposed to a submaximal dose of sulfated CCK-8 (Sigma, 3×10^-9 M). After obtaining a stable response, the tissues are washed out 3 times rapidly and every 5 to 10 minutes for 1 hour to reestablish a stable baseline.
As a final test, ACH (10 μM) is added to induce maximal contraction.

The conditions of test [2]: literature background; cited from earlier work.
The mark [3] stands for this setting: intraperitoneally at 0.1 μmoles/kg.

Ends that are not written are not given here.

Take `COc1ccc(N(C(=O)CN2C(=O)C(Cc3n[nH]c4ccccc34)C(=O)N(c3ccccc3)c3ccccc32)C(C)C)cc1` (stereo not shown) [CCK-A agonist 1, 2[3(1H-Indazol-3-ylmethyl)-2,4-dioxo-5-phenyl-2,3,4,5-tetrahydro-benzo[b]1,4]diazepin1-ylN-isopropyl-N-(4-methoxy-phenyl) acetamide, reference compound]: the “rat gastric emptying: % emptying” value in the test on rat gastric emptying (setting [3]) was found to be 6%. This molecule also showed a % contraction in test [1] (delivered at 3 μM) of 87%. As to `COc1ccc(N(C(=O)CN2C(=O)C(Cc3n[nH]c4ccccc34)C(=O)N(c3ccccn3)c3ccccc32)C(C)C)cc1` (stereo not shown) [CCK-A agonist 2, reference compound], the “rat gastric emptying: % emptying” value with rat gastric emptying (setting [3]) came out at 2.5%. This molecule also registered a % contraction in test [1] (delivered at 30 μM) of 100%. “CCK-8: CCK8 is the Cterminal octapeptide of CCK (DYMGWMDF; ends and bridges not checked; UniProt P06307 96-103, looked up) [reference compound]”: the “rat gastric emptying: % emptying” value in the test on rat gastric emptying (CCK-8 intraperitoneally at 30 nmoles/kg) is 0%. For the same molecule, in test [1] (CCK-8 delivered at 1 μM), the “Isolated guinea pig gallbladder: % contraction” value is 100%.

B1: CCK: a peptide found in the gastrointestinal tract and the central nervous system (peptide, UniProt P06307 21-115, looked up)
Cholecystokinin: QPVPPADPAGSGLQRAEEAPRRQLRVSQRTDGESRAHLGALLARYIQQARKAPSGRMSIVKNLQNLDPSHRISDRDYMGWMDFGRRSAEEYEYPS
modifications: Cholecystokinin
notes: a peptide found in the gastrointestinal tract and the central nervous system
Regarding B1, the “inhibition of gastric emptying in humans” value in test [2] is listed as “inhibit gastric emptying in humans”.

Values taken from US5795887A, “Method of inducing cholecystokinin agonist activity using 1,4- Benzodiazepine compounds” (Glaxo Wellcome Inc., priority 1994, dated 1998).
